Reference: paper PMC11432795, “Mutagenesis of the Peptide Inhibitor of ASIC3 Channel Introduces Binding to Thumb Domain of ASIC1a but Reduces Analgesic Activity” (Marine Drugs, 2024)
Positions of bridges follow the written chain, without caps; N, C: chain ends. Residues, ends and D or L forms follow the SMILES beside them.

Tests used:
rat ASIC1b channel = assay: Two-electrode voltage clamp, rat ASIC1b in X. laevis oocytes; type: cell-based; conditions: 30 s preapplication, activated at pH 5.5
Description: A small portion of the ovary was isolated from frogs under anesthesia induced by a 0.17% solution of procaine methanesulphonate (MS222) (Sigma), followed by treatment with collagenase (1 mg/mL) at room temperature for 2 h. Oocytes at stages IV and V, devoid of follicular membranes, were transferred to ND-96 medium (containing 96 mM NaCl, 5 mM HEPES, 2 mM KCl, 1.8 mM CaCl2, 1 mM MgCl2, pH 7.4). mRNA synthesis was performed from pcDNA3.1 vectors (Invitrogen, Carlsbad, CA, USA) containing the rat ASIC3 gene, as well as pCI vectors containing genes for rat ASIC1a, its mutant analogues, and ASIC1b. mRNA (2.5–10 ng) was then injected into the oocytes. For the ASIC1a/3 heteromeric channels, the mRNA encoding the ASIC1a and ASIC3 subunits were injected in a 1:5 ratio, respectively. Subsequently, the oocytes were incubated for 2–3 days at a temperature of 17–19 °C in ND96 medium supplemented with gentamicin and streptomycin (20 µg/mL each).
Whole-cell electrophysiological recordings of ASIC channels were conducted using a two-electrode voltage-clamp setup. Microelectrodes were filled with 3 M KCl. Recordings from oocytes were carried out at a holding potential of −50 mV, with data filtered at 10 Hz and sampled at a rate of 100 Hz using an L780M ADC (LCard, Moscow, Russia). […]

[1] = test system: rat ASIC1a E357A mutant channel; assay: Two-electrode voltage clamp, E357A mutant ASIC1a in X. laevis oocytes; type: cell-based; conditions: 10 µM; pH 5.5 stimulus, conditioning pH 7.4, peptide 30 s; mean ± SEM, n = 5
Description: Figure 5 The pivotal role of residue D355 in the ASIC1a channel for the action of the A23K peptide ligand. (A,B) pH dependence of steady-state desensitization (A) and activation (B) in mutant channels (D355A and E357A) compared to the wild-type channel (wt). Each data point represents results from 5 cells. (C–E) Representative current traces illustrating the effects of A23K at a concentration of 10 µM on wt (C), D355A (D), and E357A (E) channels. Currents were evoked by a pH 5.5 stimulus following a conditioning pH of 7.4, with the peptide applied for 30 s preceding the pH stimulus. (F) Bar graph quantifying the effects depicted in (C,D) as a percentage of the corresponding control currents (n = 5). A value of 1.0, represented by a dotted line, corresponds to control measurements at pH 5.5 for each form of ASIC1a. The data are expressed as mean ± SEM; *** p < 0.001, **** p < 0.0001, ns non-significant vs. control, unpaired t-test.
To introduce D355A and E357A substitutions, we designed two pairs of primers. For D355A substitution, the forward primer sequence was 5′–[…]–3′, and the reverse primer (R2) for D355A was 5′–CTAGGAAGTCCAGGGCAG–3′. For E357A substitution, the forward primer sequence was 5′–[…]–3′, and the reverse primer for E357A was the same as for D355A (designated as “R2”). […]

human ASIC3 channels = conditions: ref [18]; cited from earlier work
Excerpt: Peptide Ugr9-1 was originally identified as a negative modulator of human ASIC3 channels. […] Combining comparative analysis, molecular modeling techniques, and structural and functional studies, we generated two novel peptide variants derived from Ugr9-1 capable of modulating both ASIC3 and ASIC1a channels.

[2] = cited from earlier work
Excerpt: Selective ligands targeting specific ASIC isoforms are invaluable for structural and functional investigations. Peptide ligands sourced from various animal venoms have emerged as such tools. […] Bot ... || The 29-amino acid peptide Ugr9a-1, isolated from the venom of the northern sea anemone Urticina grebelnyi, represents a structural class of toxins termed “boundless β-hairpin”. […] While the significant involvement of ASIC3 channels in acid-induced, chronic neuropathic and inflammatory pain has been extensively reported, the role of ASIC1a remains less clear.

ASIC3 channels = conditions: ref [18],[19],[20]; cited from earlier work
Excerpt: The 29-amino acid peptide Ugr9a-1, isolated from the venom of the northern sea anemone Urticina grebelnyi, represents a structural class of toxins termed “boundless β-hairpin”.

CC[C@H](C)[C@H](N)C(=O)N[C@@H](CO)C(=O)N[C@H](C(=O)N[C@@H](CC(=O)O)C(=O)N1CCC[C@H]1C(=O)N1CCC[C@H]1C(=O)N[C@H]1CSSC[C@@H]2NC(=O)[C@H](CC(N)=O)NC(=O)CNC(=O)[C@H](CO)NC(=O)CNC(=O)[C@H](CC(=O)O)NC(=O)[C@H](CCCNC(=N)N)NC(=O)[C@H](Cc3c[nH]cn3)NC(=O)[C@H](Cc3ccc(O)cc3)NC(=O)[C@H](CSSC[C@@H](C(=O)NCC(=O)N[C@@H](C)C(=O)N[C@H](C(=O)O)C(C)C)NC(=O)CNC(=O)[C@H](Cc3ccc(O)cc3)NC(=O)[C@H](CCCCN)NC(=O)[C@H](CC(=O)O)NC(=O)[C@H](Cc3ccc(O)cc3)NC(=O)[C@H](C(C)C)NC2=O)NC(=O)[C@H](Cc2ccccc2)NC(=O)[C@H](CCCNC(=N)N)NC1=O)[C@@H](C)CC [A23K] (H-ISIDPPCRFCYHRDGSGNCVYDKYGCGAV-OH; disulfide 7-19, 10-26)
effect on rat ASIC1b channel at 50 µM (rat ASIC1b channel): Lack of effect
inhibitory effect on E357A mutant channel [1]: 47.1 ± 7.7%

CC[C@H](C)[C@H](N)C(=O)N[C@@H](CO)C(=O)N[C@H](C(=O)N[C@@H](CC(=O)O)C(=O)N1CCC[C@H]1C(=O)N1CCC[C@H]1C(=O)N[C@H]1CSSC[C@@H]2NC(=O)[C@H](CC(N)=O)NC(=O)CNC(=O)[C@H](CO)NC(=O)CNC(=O)[C@H](CC(=O)O)NC(=O)[C@H](CCCNC(=N)N)NC(=O)[C@H](Cc3c[nH]cn3)NC(=O)[C@H](Cc3ccc(O)cc3)NC(=O)[C@H](CSSC[C@@H](C(=O)NCC(=O)N[C@@H](C)C(=O)N[C@H](C(=O)O)C(C)C)NC(=O)CNC(=O)[C@H](Cc3ccc(O)cc3)NC(=O)[C@H](C)NC(=O)[C@H](CC(=O)O)NC(=O)[C@H](Cc3ccc(O)cc3)NC(=O)[C@H](C(C)C)NC2=O)NC(=O)[C@H](Cc2ccccc2)NC(=O)[C@H](CCCNC(=N)N)NC1=O)[C@@H](C)CC [Ugr9-1] (H-ISIDPPCRFCYHRDGSGNCVYDAYGCGAV-OH; disulfide 7-19, 10-26)
IC50 (human ASIC3 channels): 10 µM
effect on acid-induced and inflammatory pain ([2]; mouse models, ref [18],[19],[20]): promising results in mitigating acid-induced and inflammatory pain
effect on acid-induced and CFA-induced inflammatory pain ([2]; range of doses, ref [18],[20]): attenuates acid-induced and CFA-induced inflammatory pain in mice across a range of doses
modulation of ASIC3 channels (ASIC3 channels): selectively modulates ASIC3 channels
